{"source": "patent US20060142247A1", "about": "“Tricyclic heterocycles” (priority 2004, published 2006)", "system": "HCT 116 cells", "experiment": "Viability assay HCT 116 cells (CellTiter-Glo)", "type": "cell-based", "conditions": "Homo sapiens, HCT-116, 120 h, HCT 116 human colon carcinoma cells, 5 days incubation, CellTiter-Glo luminescence", "how_it_was_run": "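Human colon carcinoma cells seeded at 1000/well in RPMI 1640 with GlutaMAX, FCS and Pen/Strep, incubated 24 h at 37 °C, then treated with 10 concentrations (30 μM to 0.0015 μM, 1:3). After 5 days, viability read by CellTiter-Glo ATP luminescence.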"}
{"smiles": "C=CCN1C(=O)C(C)(C)c2cc3nc(-c4n[nH]c5ccccc45)[nH]c3cc21", "note": "[Example 2, 5-Allyl-2-(1H-indazol-3-yl)-7,7-dimethyl-5,7-dihydro-3H-imidazo[4,5-f]indol-6-one]", "values": [{"measurement": "IC50", "value": 180, "unit": "nM"}]}
{"smiles": "CCN1C(=O)C(C)(C)c2cc3nc(-c4n[nH]c5ccccc45)[nH]c3cc21", "note": "[Example 3, 5-Ethyl-2-(1H-indazol-3-yl)-7,7-dimethyl-5,7-dihydro-3H-imidazo[4,5-f]indol-6-one]", "values": [{"measurement": "IC50", "value": "100 to 1000", "unit": "nM"}]}
{"smiles": "CCCN1C(=O)C(C)(C)c2cc3nc(-c4n[nH]c5ccccc45)[nH]c3cc21", "note": "[Example 5, 2-(1H-indazol-3-yl)-7,7-dimethyl-5-propyl-5,7-dihydro-3H-imidazo[4,5-f]indol-6-one]", "values": [{"measurement": "IC50", "value": "100 to 1000", "unit": "nM"}]}
{"smiles": "CC(C)N1C(=O)C(C)(C)c2cc3nc(-c4n[nH]c5ccccc45)[nH]c3cc21", "note": "[Example 6, 2-(1H-indazol-3-yl)-5-isopropyl-7,7-dimethyl-5,7-dihydro-3H-imidazo[4,5-f]indol-6-one]", "values": [{"measurement": "IC50", "value": "100 to 1000", "unit": "nM"}]}
{"smiles": "CC1(C)C(=O)N(CCCN2CCOCC2)c2cc3[nH]c(-c4n[nH]c5ccccc45)nc3cc21", "note": "[Example 7, 2-(1H-indazol-3-yl)-7,7-dimethyl-5-(3-morpholin-4-yl-propyl)-5,7-dihydro-3H-imidazo[4,5-f]indol-6-one]", "values": [{"measurement": "IC50", "value": 280, "unit": "nM"}]}
{"smiles": "CC1(C)C(=O)Nc2cc3[nH]c(-c4n[nH]c5ccccc45)nc3cc21", "note": "[Example 8, 2-(1H-indazol-3-yl)-7,7-dimethyl-5,7-dihydro-3H-imidazo[4,5-f]indol-6-one]", "values": [{"measurement": "IC50", "value": "100 to 1000", "unit": "nM"}]}
{"smiles": "O=C1Nc2cc3nc(-c4n[nH]c5ccccc45)[nH]c3cc2C12CCCC2", "note": "[Example 9, 2-(1H-indazol-3-yl)-spiro[7,7-cyclopentan-5,7-dihydro-3H-imidazo[4,5-f]indol]-6-one]", "values": [{"measurement": "IC50", "value": "100 to 1000", "unit": "nM"}]}
{"smiles": "CC1C(=O)Nc2cc3[nH]c(-c4n[nH]c5ccccc45)nc3cc21", "note": "(stereo not drawn) [Example 11, 2-(1H-Indazol-3-yl)-7-methyl-5,7-dihydro-3H-imidazo[4,5-f]indol-6-one]", "values": [{"measurement": "IC50", "value": "100 to 1000", "unit": "nM"}]}
{"smiles": "CCC1C(=O)Nc2cc3nc(-c4[nH]nc5ccccc45)[nH]c3cc21", "note": "(stereo not drawn) [Example 13, 7-Ethyl-2-(1H-indazol-3-yl)-5,7-dihydro-3H-imidazo[4,5-f]indol-6-one]", "values": [{"measurement": "IC50", "value": "100 to 1000", "unit": "nM"}]}
{"smiles": "C=CCCN1C(=O)C(C)(C)c2cc3nc(-c4n[nH]c5ccccc45)[nH]c3cc21", "note": "[Example 15, 5-But-3-enyl-2-(1H-indazol-3-yl)-7,7-dimethyl-5,7-dihydro-3H-imidazo[4,5-f]indol-6-one]", "values": [{"measurement": "IC50", "value": "100 to 1000", "unit": "nM"}]}
{"smiles": "COCCOCCN1C(=O)C(C)(C)c2cc3nc(-c4n[nH]c5ccccc45)[nH]c3cc21", "note": "[Example 17, 2-(1H-Indazol-3-yl)-5-[2-(2-methoxy-ethoxy)-ethyl]-7,7-dimethyl-5,7-dihydro-3H-imidazo[4,5-f]indol-6-one]", "values": [{"measurement": "IC50", "value": "100 to 1000", "unit": "nM"}]}
{"smiles": "CC1(C)C(=O)N(CCCN2CCCCC2)c2cc3[nH]c(-c4n[nH]c5ccccc45)nc3cc21", "note": "[Example 19, 2-(1H-Indazol-3-yl)-7,7-dimethyl-5-(3-piperidin-1-yl-propyl)-5,7-dihydro-3H-imidazo[4,5-f]indol-6-one]", "values": [{"measurement": "IC50", "value": "100 to 1000", "unit": "nM"}]}
{"smiles": "CN(C)CCCN1C(=O)C(C)(C)c2cc3nc(-c4n[nH]c5ccccc45)[nH]c3cc21", "note": "[Example 21, 5-(3-Dimethylamino-propyl)-2-(1H-indazol-3-yl)-7,7-dimethyl-5,7-dihydro-3H-imidazo[4,5-f]indol-6-one]", "values": [{"measurement": "IC50", "value": "100 to 1000", "unit": "nM"}]}
{"smiles": "CCOC(=O)CN1C(=O)C(C)(C)c2cc3nc(-c4n[nH]c5ccccc45)[nH]c3cc21", "note": "[Example 23, [2-(1H-Indazol-3-yl)-7,7-dimethyl-6-oxo-6,7-dihydro-3H-imidazo[4,5-f]indol-5-yl]-acetic acid ethyl ester]", "values": [{"measurement": "IC50", "value": "100 to 1000", "unit": "nM"}]}
{"smiles": "CC1(C)C(=O)N(CC#N)c2cc3[nH]c(-c4n[nH]c5ccccc45)nc3cc21", "note": "[Example 24, [2-(1H-Indazol-3-yl)-7,7-dimethyl-6-oxo-6,7-dihydro-3H-imidazo[4,5-f]indol-5-yl]-acetonitrile]", "values": [{"measurement": "IC50", "value": "100 to 1000", "unit": "nM"}]}
{"smiles": "CC1(C)C(=O)N(Cc2ccccc2)c2cc3[nH]c(-c4n[nH]c5ccccc45)nc3cc21", "note": "[Example 26, 5-Benzyl-2-(1H-indazol-3-yl)-7,7-dimethyl-5,7-dihydro-3H-imidazo[4,5-f]indol-6-one]", "values": [{"measurement": "IC50", "value": "100 to 1000", "unit": "nM"}]}
{"smiles": "CC1(C)C(=O)N(Cc2ccc(S(C)(=O)=O)cc2)c2cc3[nH]c(-c4n[nH]c5ccccc45)nc3cc21", "note": "[Example 27, 2-(1H-Indazol-3-yl)-5-(4-methanesulfonyl-benzyl)-7,7-dimethyl-5,7-dihydro-3H-imidazol[4,5-f]indol-6-one]", "values": [{"measurement": "IC50", "value": "100 to 1000", "unit": "nM"}]}
{"smiles": "CC1(C)C(=O)N(CCO[Si](C)(C)C(C)(C)C)c2cc3[nH]c(-c4n[nH]c5ccccc45)nc3cc21", "note": "[Example 28, 5-[2-(tert-Butyl-dimethyl-silanyloxy)-ethyl]-2-(1H-indazol-3-yl)-7,7-dimethyl-5,7-dihydro-3H-imidazo[4,5-f]indol-6-one]", "values": [{"measurement": "IC50", "value": "100 to 1000", "unit": "nM"}]}
{"smiles": "CC1(C)C(=O)N(CCO)c2cc3[nH]c(-c4n[nH]c5ccccc45)nc3cc21", "note": "[Example 34, 5-(2-Hydroxy-ethyl)-2-(1H-indazol-3-yl)-7,7-dimethyl-5,7-dihydro-3H-imidazo[4,5-f]indol-6-one]", "values": [{"measurement": "IC50", "value": "100 to 1000", "unit": "nM"}]}
{"smiles": "CC1(C)C(=O)N(CC(O)CO)c2cc3[nH]c(-c4n[nH]c5ccccc45)nc3cc21", "note": "(stereo not drawn) [Example 35, 5-(2,3-Dihydroxy-propyl)-2-(1H-indazol-3-yl)-7,7-dimethyl-5,7-dihydro-3H-imidazo [4,5-f]indol-6-one]", "values": [{"measurement": "IC50", "value": "100 to 1000", "unit": "nM"}]}
{"smiles": "CC1(C)C(=O)N(CC(=O)O)c2cc3[nH]c(-c4n[nH]c5ccccc45)nc3cc21", "note": "[Example 36, [2-(1H-Indazol-3-yl)-7,7-dimethyl-6-oxo-6,7-dihydro-3H-imidazo[4,5-f]indol-5-yl]-acetic acid]", "values": [{"measurement": "IC50", "value": "1000 to 10000", "unit": "nM"}]}
{"smiles": "CC1(C)C(=O)N(CC(N)=O)c2cc3[nH]c(-c4n[nH]c5ccccc45)nc3cc21", "note": "[Example 37, 2-[2-(1H-Indazol-3-yl)-7,7-dimethyl-6-oxo-6,7-dihydro-3H-imidazo[4,5-f]indol-5-yl]-acetamide]", "values": [{"measurement": "IC50", "value": "100 to 1000", "unit": "nM"}]}
{"smiles": "CC1(C)C(=O)N(CC(=O)NCc2ccccc2)c2cc3[nH]c(-c4n[nH]c5ccccc45)nc3cc21", "note": "[Example 39, N-Benzyl-2-[2-(1H-indazol-3-yl)-7,7-dimethyl-6-oxo-6,7-dihydro-3H-imidazo[4,5-f]indol-5-yl]-acetamide]", "values": [{"measurement": "IC50", "value": "100 to 1000", "unit": "nM"}]}
{"smiles": "CC1(C)C(=O)N(CC(=O)N2CCOCC2)c2cc3[nH]c(-c4n[nH]c5ccccc45)nc3cc21", "note": "[Example 40, 2-(1H-Indazol-3-yl)-7,7-dimethyl-5-(2-morpholin-4-yl-2-oxo-ethyl)-5,7-dihydro-3H-imidazo[4,5-f]indol-6-one]", "values": [{"measurement": "IC50", "value": "100 to 1000", "unit": "nM"}]}
{"smiles": "CC1(C)C(=O)N(CC(=O)Nc2ccccc2)c2cc3[nH]c(-c4n[nH]c5ccccc45)nc3cc21", "note": "[Example 43, 2-[2-(1H-Indazol-3-yl)-7,7-dimethyl-6-oxo-6,7-dihydro-3H-imidazo[4,5-f]indol-5-yl]-N-phenyl-acetamide]", "values": [{"measurement": "IC50", "value": "100 to 1000", "unit": "nM"}]}
{"smiles": "CC1(C)C(=O)N(CC(=O)NO)c2cc3[nH]c(-c4n[nH]c5ccccc45)nc3cc21", "note": "[Example 49, N-Hydroxy-2-[2-(1H-indazol-3-yl)-7,7-dimethyl-6-oxo-6,7-dihydro-3H-imidazo[4,5-f]indol-5-yl]-acetamide]", "values": [{"measurement": "IC50", "value": "1000 to 10000", "unit": "nM"}]}
{"smiles": "CC1(C)C(=O)N(CCN)c2cc3[nH]c(-c4n[nH]c5ccccc45)nc3cc21", "note": "[Example 52, 5-(2-Amino-ethyl)-2-(1H-indazol-3-yl)-7,7-dimethyl-5,7-dihydro-3H-imidazo[4,5-f]indol-6-one]", "values": [{"measurement": "IC50", "value": "100 to 1000", "unit": "nM"}]}
